# Reference: patent EP4667464A1 (Cyrus Therapeutics Inc., priority 2023, dated 2024)
# Where two headings read alike, the source gives them in different places.
# Key:
# [1] = molecular target: T1, KRAS G12C::SOS1 (Homo sapiens, UniProt Q07889); test: KRAS G12C::SOS1 protein-protein interaction (PPI) inhibition assay (HTRF); assay type: binding
# T1 construct: purchased CISBIO 64KRASG12PEH
# T1 sequence (Q07889 1-1333): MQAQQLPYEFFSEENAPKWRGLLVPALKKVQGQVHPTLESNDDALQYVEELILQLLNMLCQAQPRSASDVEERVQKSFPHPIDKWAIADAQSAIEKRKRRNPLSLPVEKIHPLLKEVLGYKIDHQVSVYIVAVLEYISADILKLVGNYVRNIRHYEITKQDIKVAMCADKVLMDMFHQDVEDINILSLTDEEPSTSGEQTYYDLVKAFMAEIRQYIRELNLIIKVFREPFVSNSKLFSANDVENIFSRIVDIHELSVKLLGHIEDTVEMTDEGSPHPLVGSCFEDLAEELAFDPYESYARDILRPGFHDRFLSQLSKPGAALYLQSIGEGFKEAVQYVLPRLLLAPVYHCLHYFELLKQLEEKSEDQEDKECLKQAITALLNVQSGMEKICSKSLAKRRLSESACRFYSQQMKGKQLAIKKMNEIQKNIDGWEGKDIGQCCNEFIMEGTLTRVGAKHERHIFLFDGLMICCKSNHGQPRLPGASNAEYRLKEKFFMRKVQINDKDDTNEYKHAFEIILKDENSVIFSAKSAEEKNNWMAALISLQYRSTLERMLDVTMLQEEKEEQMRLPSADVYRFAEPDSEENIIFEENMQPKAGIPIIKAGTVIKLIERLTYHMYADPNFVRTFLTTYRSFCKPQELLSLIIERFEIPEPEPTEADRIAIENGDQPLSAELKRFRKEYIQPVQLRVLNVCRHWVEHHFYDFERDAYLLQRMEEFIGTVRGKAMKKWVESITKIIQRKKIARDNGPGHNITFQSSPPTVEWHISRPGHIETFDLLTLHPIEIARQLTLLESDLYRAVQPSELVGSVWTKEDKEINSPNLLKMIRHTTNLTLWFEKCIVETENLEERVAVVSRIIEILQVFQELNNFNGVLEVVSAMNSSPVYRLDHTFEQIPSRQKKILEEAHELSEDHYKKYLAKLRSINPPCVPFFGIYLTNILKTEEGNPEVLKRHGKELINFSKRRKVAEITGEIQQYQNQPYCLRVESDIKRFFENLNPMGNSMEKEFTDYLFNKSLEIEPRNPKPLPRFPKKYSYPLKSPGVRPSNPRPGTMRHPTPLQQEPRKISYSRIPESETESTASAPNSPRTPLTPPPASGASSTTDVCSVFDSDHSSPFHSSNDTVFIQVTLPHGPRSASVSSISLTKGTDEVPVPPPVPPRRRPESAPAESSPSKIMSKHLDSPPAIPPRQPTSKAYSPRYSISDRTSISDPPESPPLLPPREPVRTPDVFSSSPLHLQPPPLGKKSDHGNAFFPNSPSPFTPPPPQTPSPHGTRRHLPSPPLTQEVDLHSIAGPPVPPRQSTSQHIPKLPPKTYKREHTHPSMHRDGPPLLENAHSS
# Outline: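 Compounds, at eight 3-fold dilutions from 3 µM, were mixed with GTP-loaded Tag1-KRAS G12C, Tag2-SOS1 and a terbium-cryptate donor plus XL665 acceptor antibody pair. After 2 h at room temperature, time-resolved FRET reported the KRAS–SOS1 interaction.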
# [2] = molecular target: T2, SOS1 (Homo sapiens, UniProt Q07889); test: SOS-catalyzed nucleotide exchange assay (HTRF, SOS1-mediated GTP loading of KRAS G12D); assay type: biochemical
# T2 construct: HIS-SOS1cat (160 nM; Cytoskeleton, US); His (N); purchased Cytoskeleton
# T2 sequence (Q07889 564-1049 limits assumed): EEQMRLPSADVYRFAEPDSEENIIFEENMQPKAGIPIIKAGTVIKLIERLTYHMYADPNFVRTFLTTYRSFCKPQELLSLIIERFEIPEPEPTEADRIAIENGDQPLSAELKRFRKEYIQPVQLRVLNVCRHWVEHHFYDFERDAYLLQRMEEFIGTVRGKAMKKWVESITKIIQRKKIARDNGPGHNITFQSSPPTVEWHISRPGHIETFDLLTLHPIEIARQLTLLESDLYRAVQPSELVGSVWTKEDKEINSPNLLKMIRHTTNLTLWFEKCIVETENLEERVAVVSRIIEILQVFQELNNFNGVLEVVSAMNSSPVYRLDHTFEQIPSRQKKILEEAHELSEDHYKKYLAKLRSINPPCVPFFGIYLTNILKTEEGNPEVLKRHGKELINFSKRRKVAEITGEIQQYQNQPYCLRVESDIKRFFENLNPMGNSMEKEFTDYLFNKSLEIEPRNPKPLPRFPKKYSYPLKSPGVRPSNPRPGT
# [3] = 8 concentrations from 3 µM, three replicates, read-out: KRAS G12C::SOS1 PPI
# [4] = GST-KRAS G12D, HIS-SOS1cat, compound 128 pM to 10 µM, read-out: SOS-catalyzed nucleotide exchange assay
"IC50 [1, 3] [nM]","IC50 [2, 4] [nM]",SMILES,IC50 [1] [nM],IC50 [2] [nM]
< 50,< 50,"CC(=O)N1CCC(n2nncc2-c2cncc(-n3nc(C(=O)N[C@H](C)c4cccc(C(F)(F)F)c4F)ccc3=O)c2)CC1 [Example 20-7, (R)-1-(5-(1-(1-acetylpiperidin-4-yl)-1H-1,2,3-triazol-5-yl)pyridin-3-yl)-N-(1-(2-fluoro-3-(trifluoromethyl)phenyl)ethyl)-6-oxo-1,6-dihydropyridazine-3-carboxamide]",–,–
< 50,< 50,"CCN1CC(n2nncc2-c2cncc(-n3nc(C(=O)N[C@H](C)c4cccc(C(F)(F)F)c4F)ccc3=O)c2)C1 [Example 20-9, (R)-1-(5-(1-(1-ethylazetidin-3-yl)-1H-1,2,3-triazol-5-yl)pyridin-3-yl)-N-(1-(2-fluoro-3-(trifluoromethyl)phenyl)ethyl)-6-oxo-1,6-dihydropyridazine-3-carboxamide]",–,–
< 50,< 50,"CC(=O)N1CC(n2nncc2-c2cncc(-n3nc(C(=O)N[C@H](C)c4cccc(C(F)(F)F)c4F)ccc3=O)c2)C1 [Example 20-10, (R)-1-(5-(1-(1-acetylazetidin-3-yl)-1H-1,2,3-triazol-5-yl)pyridin-3-yl)-N-(1-(2-fluoro-3-(trifluoromethyl)phenyl)ethyl)-6-oxo-1,6-dihydropyridazine-3-carboxamide]",–,–

# More lines, now with the values behind:
SMILES,"IC50 [1, 3] [nM]","IC50 [2, 4] [nM]",IC50 [1] [nM],IC50 [2] [nM]
"C[C@@H](NC(=O)c1ccc(=O)n(-c2cncc(-c3cnnn3C3CNC3)c2)n1)c1cccc(C(F)(F)CO)c1F [Example 20-2, (R)-1-(5-(1-(azetidin-3-yl)-1H-1,2,3-triazol-5-yl)pyridin-3-yl)-N-(1-(3-(1,1-difluoro-2-hydroxyethyl)-2-fluorophenyl)ethyl)-6-oxo-1,6-dihydropyridazine-3-carboxamide]",< 50,< 50,–,–
"[2H]C([2H])(O)C(F)(F)c1cccc([C@@H](C)NC(=O)c2ccc(=O)n(-c3cncc(-c4cnnn4C4CNC4)c3)n2)c1F [Example 20-3, (R)-1-(5-(1-(azetidin-3-yl)-1H-1,2,3-triazol-5-yl)pyridin-3-yl)-N-(1-(3-(1,1-difluoro-2-hydroxyethyl-2,2-dideuterio)-2-fluorophenyl)ethyl)-6-oxo-1,6-dihydropyridazine-3-carboxamide]",–,–,< 50,< 50
"C[C@@H](NC(=O)c1ccc(=O)n(-c2cncc(-c3cnnn3C3CCNCC3)c2)n1)c1cccc(C(F)(F)F)c1F [Example 20-4, N-[(1R)-1-[2-fluoro-3-(trifluoromethyl)phenyl]ethyl]-6-oxo-1-[5-[3-(4-piperidyl)triazol-4-yl]-3-pyridyl]pyridazine-3-carboxamide]",–,–,50 to 150,< 50
"C[C@@H](NC(=O)c1ccc(=O)n(-c2cncc(-c3cnnn3[C@H]3CCNC3)c2)n1)c1cccc(C(F)(F)F)c1F [Example 20-5, N-[(1R)-1-[2-fluoro-3-(trifluoromethyl)phenyl]ethyl]-6-oxo-1-[5-[3-[(3S)-pyrrolidin-3-yl]triazol-4-yl]-3-pyridyl]pyridazine-3-carboxamide]",–,–,50 to 150,50 to 150
"C[C@@H](NC(=O)c1ccc(=O)n(-c2cncc(-c3cnnn3C3CCN(C)CC3)c2)n1)c1cccc(C(F)(F)F)c1F [Example 20-6, (R)-N-(1-(2-fluoro-3-(trifluoromethyl)phenyl)ethyl)-1-(5-(1-(1-methylpiperidin-4-yl)-1H-1,2,3-triazol-5-yl)pyridin-3-yl)-6-oxo-1,6-dihydropyridazine-3-carboxamide]",< 50,< 50,–,–
"C[C@@H](NC(=O)c1ccc(=O)n(-c2cncc(-c3cnnn3C3CCN(S(C)(=O)=O)CC3)c2)n1)c1cccc(C(F)(F)F)c1F [Example 20-8, (R)-N-(1-(2-fluoro-3-(trifluoromethyl)phenyl)ethyl)-1-(5-(1-(1-(methylsulfonyl)piperidine-4-yl)-1H-1,2,3-triazol-5-yl)pyridin-3-yl)-6-oxo-1,6-dihydropyridazine-3-carboxamide]",< 50,< 50,–,–
